In brackets after ≈: the same amount, converted by molar mass.
How the values were obtained:
[1] = Solubility of RTB in MCT, F6H8 or mixed solvents, HPLC; type: physicochemical; settings: 25° C.
Procedure: Solubility of riboflavin tetrabutyrate (RTB) was tested in medium chain triglycerides (MCT), F6H8, or mixtures of MCT/F6H8 at room temperature, and in F6H8 at 100° C. Solubility was analyzed as in Example 1a.

[2] = Saturated aqueous solubility of RTB in PBS with or without HP-β-CD, HPLC; type: physicochemical
Procedure: Solubility of riboflavin tetrabutyrate (RTB) was tested in PBS solution, with or without 10% hydroxypropyl-beta-cyclodextrin (HP-β-CD) as solubilizer, at varying pH. For each formulation, 5 mg of RTB was added to 5 mL of pH-adjusted PBS containing 10% HP-β-CD at 25° C., and mixed well. Solubility was analyzed as in Example 1a.

[3] = Impurities from riboflavin tetrabutyrate in aqueous solution; type: physicochemical; settings: PBS
Procedure: The impurities present in PBS solutions, with or without 10% hydroxy-propyl-beta-cyclodextrin (HP-β-CD) as solubilizer, at varying pH, with riboflavin tetrabutyrate (RTB) was investigated. Using similar sample analysis methods described in Examples 1a-1c, the impurities were determined.

[4] = Impurities from riboflavin tetrabutyrate in organic solvents; type: physicochemical; settings: 25° C.; for Impur. 0 hr / Impur. 1 Month / Impur. 14 Days: RTB
Procedure: The impurities present in MCT, F6H8, or combinations, with riboflavin tetrabutyrate (RTB), at 25° C. was investigated. Using similar sample analysis methods described in Examples 1a-1c, the impurities were determined.

[5] = tested on: porcine corneas; experiment: Ex vivo study (Dresden method), RTB-UVA crosslinking, static stress-strain, de-epithelialized corneas; settings: de-epithelialized porcine corneal strips; 0.1% RTB in MCT or F6H8 or combination; UVA 370 nm, 3 mW/cm2, 30 minutes
Procedure: Fresh porcine cadaver eyes with intact epithelia and clear corneas are retrieved from the local slaughterhouse within 2 to 5 hours post-mortem. The eyes are de-epithelialized mechanically, removing the corneoscleral ring with scissors. […] Because of the natural thickness of the porcine cornea, only 1 corneal strip with clearly cut perpendicular edges could be prepared properly from each eye. Half of the corneas are treated with RTB-UVA irradiation, and half are used as untreated controls. Using ultrasound pachymetry (Pachette, Technomed), the central corneal thickness is determined in the eyes. […]
(§1) The porcine corneal strips are clamped horizontally at a distance of 8.0 mm between the jaws of a commercially available microcomputer-controlled biomaterial tester (Minimat, Rheometric Scientific GmbH. To include the physiological stress range, a prestress of 5×10^3 Pa (1 Pa=1 N/m2) is used, which requires a force of 20 mN in porcine corneas. The strain is then increased linearly with a velocity of 1.5 mm min-1, and the stress is measured up to 2×10^5 Pa. The stress-strain values are fitted by an exponential function σ=A exp (BX) using the SPSS-calculation program (SPSS GmbH Software, Munich). Young's modulus (E) is calculated for 4%, 6%, and 8% strain as the gradient of the stress-strain graph (E=dσ/dε=A×B exp (B×ε). […]

[6] = tested on: porcine corneas; experiment: Ex vivo RTB-UVA crosslinking, static stress-strain, without de-epithelialization; settings: intact porcine eyes, corneas not de-epithelialized; RTB formulations in MCT or F6H8; UVA radiation
Procedure: Starting 5 minutes before the treatment, 0.1% riboflavin tetrabutyrate (RTB) photosensitizer solution (10 mg riboflavin tetrabutyrate in 10 mL MCT or F6H8 or a combination thereof) is dropped on the treated strips and MCT or F6H8 or combination solution is dropped on the control strips at 5-minute intervals. Ultraviolet A irradiation (370 nm) is applied using 2 double UVA diodes (Roithner Lasertechnik) with an irradiance of 3 mW/cm2 at a distance of 1.0 cm from the cornea for 30 minutes. This is equal to a dose of 5.4 J/cm^2. The parameters of exposure are chosen according to the treatment procedure used in keratoconus patients. Three 1.3 V accumulators are used as a power generator. […]
as §1, with “Munich).” for “Munich). Young's modulus (E) is calculated for 4%, 6%, and 8% strain as the gradient of the stress-strain graph (E=dσ/dε=A×B exp (B×ε).”

[7] = Sample YA1, HP-β-CD 10%, pH 5.0
[8] = Sample YA2, HP-β-CD 10%, pH 6.0
[9] = Sample YA3, HP-β-CD 10%, pH 7.0
[10] = Sample YA4, without HP-β-CD, pH 5.0
[11] = Sample YA5, without HP-β-CD, pH 6.0
[12] = Sample YA6, without HP-β-CD, pH 7.0
[13] = Sample YB1, 0.2%, MCT 100%, F6H8 0%
[14] = Sample YB2, 0.1%, MCT 70%, F6H8 30%
[15] = Sample YB3, 0.1%, MCT 50%, F6H8 50%

SMILES: CCCC(=O)OC[C@@H](OC(=O)CCC)[C@@H](OC(=O)CCC)[C@H](Cn1c2nc(=O)[nH]c(=O)c-2nc2cc(C)c(C)cc21)OC(=O)CCC [RTB, (2R,3S,4S)-5-(7,8-dimethyl-2,4-dioxo-3,4-dihydrobenzo[g]pteridin-10(2H)-yl) pentane-1,2,3,4-tetrayl tetrabutyrate]
- Solubility ([1]; Sample B2, MCT 100%, F6H8 0%): 3133 ng/mL (≈ 4.77 µM)
- Solubility ([1]; Sample B3, MCT 20%, F6H8 80%): 316 ng/mL (≈ 0.481 µM)
- Solubility ([1]; Sample B4, MCT 50%, F6H8 50%): 1124 ng/mL (≈ 1.71 µM)
- Solubility ([1]; Sample B5, MCT 70%, F6H8 30%): 1582 ng/mL (≈ 2.41 µM)
- Solubility ([2]; Sample C1, 25° C., HP-β-CD 10%, pH 5.0): 8 ng/mL (≈ 0.0122 µM)
- Solubility ([2]; Sample C2, 25° C., HP-β-CD 10%, pH 5.5): 3 ng/mL (≈ 0.00457 µM)
- Solubility ([2]; Sample C3, 25° C., HP-β-CD 10%, pH 6.0): 4 ng/mL (≈ 0.00609 µM)
- Solubility ([2]; Sample C4, 25° C., without HP-β-CD, pH 5.0): 8 ng/mL (≈ 0.0122 µM)
- Solubility ([2]; Sample C5, 25° C., without HP-β-CD, pH 5.5): 1 ng/mL (≈ 0.00152 µM)
- Solubility ([2]; Sample C6, 25° C., without HP-β-CD, pH 6.0): 2 ng/mL (≈ 0.00305 µM)
- Other Impurities [3, 7]: 2.94%
- Riboflavin [3, 7]: 0%
- Riboflavin Tetrabutyrate [3, 7]: 96.28%
- Other Impurities [3, 8]: 10.65%
- Riboflavin [3, 8]: 2.45%
- Riboflavin Tetrabutyrate [3, 8]: 87.2%
- Other Impurities [3, 9]: 9.39%
- Riboflavin [3, 9]: 2.03%
- Riboflavin Tetrabutyrate [3, 9]: 88.58%
- Other Impurities [3, 10]: 22.54%
- Riboflavin [3, 10]: 7.24%
- Riboflavin Tetrabutyrate [3, 10]: 70.22%
- Other Impurities [3, 11]: 20.58%
- Riboflavin [3, 11]: 7.52%
- Riboflavin Tetrabutyrate [3, 11]: 71.90%
- Other Impurities [3, 12]: 19.8%
- Riboflavin [3, 12]: 8.92%
- Riboflavin Tetrabutyrate [3, 12]: 71.30%
- RTB 0 hr [4, 13]: 98.76%
- RTB 1 Month [4, 13]: 98.71%
- RTB 14 Days [4, 13]: 98.76%
- Impur. 0 hr [4, 13]: 1.16%
- Impur. 1 Month [4, 13]: 1.15%
- Impur. 14 Days [4, 13]: 1.16%
- RTB 0 hr [4, 14]: 98.85%
- RTB 1 Month [4, 14]: 99.05%
- RTB 14 Days [4, 14]: 98.94%
- Impur. 0 hr [4, 14]: 1.14%
- Impur. 1 Month [4, 14]: 0.95%
- Impur. 14 Days [4, 14]: 1.06%
- RTB 0 hr [4, 15]: 98.87%
- RTB 1 Month [4, 15]: 98.99%
- RTB 14 Days [4, 15]: 98.92%
- Impur. 0 hr [4, 15]: 1.13%
- Impur. 1 Month [4, 15]: 1.02%
- Impur. 14 Days [4, 15]: 1.07%
- stress using strain, treated vs untreated corneas [5]: greater in the treated corneas
- stress using strain, treated vs untreated corneas [6]: greater in the treated corneas

From patent US20260144875A1, “COMPOSITIONS AND METHODS FOR CROSSLINKING STRUCTURAL PROTEINS” (ADS Therapeutics LLC, priority 2022, published 2026)
